Assay results as given in patent US10611740B2, “Aryl dihydro-2H-benzo[b][1,4]oxazine sulfonamide and related compounds for use as agonists of RORγ and the treatment of disease” (Lycera Corporation, priority 2015, dated 2020).
pEC50: −log10 of the molar value.

Target: T1, RORγ-LBD (Homo sapiens, UniProt P51449)
T1 construct: made in house; host or cells: SF9 cells (baculovirus)
T1 sequence (P51449 269-508 limits assumed): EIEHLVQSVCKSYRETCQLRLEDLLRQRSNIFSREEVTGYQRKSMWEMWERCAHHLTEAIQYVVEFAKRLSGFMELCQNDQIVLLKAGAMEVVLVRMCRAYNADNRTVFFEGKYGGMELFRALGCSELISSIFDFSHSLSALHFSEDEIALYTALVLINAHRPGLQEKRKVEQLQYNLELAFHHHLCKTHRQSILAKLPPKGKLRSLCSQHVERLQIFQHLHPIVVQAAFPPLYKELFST
Test: RORγ-Ligand Binding Domain (LBD) TR-FRET Assay;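 for TR-FRET Assay Max Response: 665/615 nm ratio relative to signal without ursolic acid or compound set at 100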
Type: biochemical
Procedure: Assay procedures and results are described below.
HIS-tagged RORγ-LBD protein was expressed in SF9 cells using a baculovirus expression system. The lysate was diluted in assay buffer (50 mM Tris pH 7.0, 50 mM KCl, 1 mM EDTA, 0.1 mM DTT, 0.01% BSA) to obtain RORγ-LBD final concentration of ˜3 nM in a 384-well assay plate (need to titrate for each batch of protein).
A stock of biotinylated-LXXLL peptide from coactivator SRC1 (Biotin-[…]) was prepared in assay buffer and added to each well (200 nM final concentration). […] RORγ antagonist ursolic acid was also included at a final concentration of 2 μM. Compounds were diluted in DMSO and further diluted in assay buffer with a final DMSO concentration at 1%.

Compound | pEC50 | TR-FRET Assay Max Response
Cn1cc(C(=O)NC[C@H]2CN(S(=O)(=O)c3cccc(C(F)(F)F)c3)c3cc(-c4cc(F)cc(OC(F)F)c4)ccc3O2)c(C(F)(F)F)n1 [Compound 30CZ, (S)-N-((6-(3-(difluoromethoxy)-5-fluorophenyl)-4-((3-(trifluoro-methyl)phenyl)sulfonyl)-3,4-dihydro-2H-benzo[b][1,4]-oxazin-2-yl)methyl)-1-methyl-3-(trifluoromethyl)-1H-pyrazole-4-carboxamide] | > 6.30 | *** (The symbol “***” indicates a value in the range of greater than 150 to 200)
O=C(NC[C@H]1CN(S(=O)(=O)c2cccc(C(F)(F)F)c2)c2cc(-c3cc(F)cc(OC(F)F)c3)ccc2O1)c1ccn[nH]1 [Compound 30DB, (S)-N-((6-(3-(difluoromethoxy)-5-fluorophenyl)-4-((3-(trifluoromethyl)phenyl)sulfonyl)-3,4-dihydro-2H-benzo[b][1,4]oxazin-2-yl)methyl)-1H-pyrazole-5-carboxamide] | > 6.30 | *** (The symbol “***” indicates a value in the range of greater than 150 to 200)
CC(C)(C[C@@H]1CN(S(=O)(=O)c2cccc(C(F)(F)F)c2)c2cc(-c3cc(F)ccc3F)ccc2O1)NC(=O)C(C)(C)O [Compound 30DD, (R)-N-(1-(6-(2,5-difluoro-phenyl)-4-((3-(trifluoromethyl)-phenyl)sulfonyl)-3,4-dihydro-2H-benzo[b][1,4]oxazin-2-yl)-2-methylpropan-2-yl)-2-hydroxy-2-methylpropanamide] | > 6.30 | *** (The symbol “***” indicates a value in the range of greater than 150 to 200)
CC(C)(C[C@@H]1CN(S(=O)(=O)c2cccc(C(F)(F)F)c2)c2cc(-c3cc(F)ccc3F)ccc2O1)NS(C)(=O)=O [Compound 30DF, (R)-N-(1-(6-(2,5-difluoro-phenyl)-4-((3-(trifluoromethyl)-phenyl)sulfonyl)-3,4-dihydro-2H-benzo[b][1,4]oxazin-2-yl)-2-methylpropan-2-yl)methane-sulfonamide] | > 6.30 | *** (The symbol “***” indicates a value in the range of greater than 150 to 200)
CC(C)(C[C@H]1CN(S(=O)(=O)c2cccc(C(F)(F)F)c2)c2cc(-c3cccc(OC(F)F)n3)ccc2O1)C(=O)O [Compound 32AM, (S)-3-(6-(6-(difluoromethoxy)-pyridin-2-yl)-4-((3-(trifluoro-methyl)phenyl)sulfonyl)-3,4-dihydro-2H-benzo[b][1,4]oxazin-2-yl)-2,2-dimethylpropanoic acid] | > 6.30 | * (The symbol “*” indicates a value in the range of 25 to 90)
O=C(O)C1(C[C@@H]2CN(S(=O)(=O)c3cccc(C(F)(F)F)c3)c3cc(-c4cc(F)cc(F)c4)ccc3O2)CCC1 [Compound 32AP, (R)-1-((6-(3,5-difluorophenyl)-4-((3-(trifluoromethyl)phenyl)-sulfonyl)-3,4-dihydro-2H-benzo[b][1,4]oxazin-2-yl)methyl)cyclobutane-1-carboxylic acid] | > 6.30 | ** (The symbol “**” indicates a value in the range of greater than 90 to 150)
O=C(O)C1(C[C@@H]2CN(S(=O)(=O)c3cccc(C(F)(F)F)c3)c3cc(-c4cc(F)ccc4F)ccc3O2)CCC1 [Compound 32AQ, (R)-1-((6-(2,5-difluorophenyl)-4-((3-(trifluoromethyl)phenyl)-sulfonyl)-3,4-dihydro-2H-benzo[b][1,4]oxazin-2-yl)methyl)cyclobutane-1-carboxylic acid] | 5.30 to 6.30 | ** (The symbol “**” indicates a value in the range of greater than 90 to 150)
CC(C)(C[C@H]1CN(S(=O)(=O)c2cccc(C(F)(F)F)c2)c2cc(-c3c(F)cccc3C(F)(F)F)ccc2O1)C(=O)O [Compound 32AY, (S)-3-(6-(2-fluoro-6-(trifluoro-methyl)phenyl)-4-((3-(trifluoro-methyl)phenyl)sulfonyl)-3,4-dihydro-2H-benzo[b][1,4]oxazin-2-yl)-2,2-dimethylpropanoic acid] | > 6.30 | ** (The symbol “**” indicates a value in the range of greater than 90 to 150)
CC(C)(C[C@H]1CN(S(=O)(=O)c2cccc(C(F)(F)F)c2)c2cc(-c3cc(F)cc(F)c3Cl)ccc2O1)C(=O)O [Compound 32U, (S)-3-(6-(2-chloro-3,5-difluoro-phenyl)-4-((3-(trifluoromethyl)-phenyl)sulfonyl)-3,4-dihydro-2H-benzo[b][1,4]oxazin-2-yl)-2,2-dimethylpropanoic acid] | > 6.30 | *** (The symbol “***” indicates a value in the range of greater than 150 to 200)
C[C@H](C[C@H]1CN(S(=O)(=O)c2cccc(C(F)(F)F)c2)c2cc(-c3cc(F)cc(F)c3Cl)cc(F)c2O1)C(=O)O [Compound 46H, (R)-3-((S)-6-(2-chloro-3,5-difluorophenyl)-8-fluoro-4-((3-(trifluoromethyl)phenyl)sulfonyl)-3,4-dihydro-2H-benzo[b][1,4]-oxazin-2-yl)-2-methylpropanoic acid] | > 6.30 | *** (The symbol “***” indicates a value in the range of greater than 150 to 200)
C[C@@H](C[C@H]1CN(S(=O)(=O)c2cccc(C(F)(F)F)c2)c2cc(-c3cc(F)cc(F)c3Cl)cc(F)c2O1)C(=O)O [Compound 46I, (S)-3-((S)-6-(2-chloro-3,5-difluorophenyl)-8-fluoro-4-((3-(trifluoromethyl)phenyl)sulfonyl)-3,4-dihydro-2H-benzo[b][1,4]-oxazin-2-yl)-2-methylpropanoic acid] | > 6.30 | *** (The symbol “***” indicates a value in the range of greater than 150 to 200)
C[C@H](C[C@H]1CN(S(=O)(=O)c2cccc(C(F)(F)F)c2)c2cc(-c3cc(F)cc(F)c3)ccc2O1)C(=O)O [Compound 46J, (R)-3-((S)-6-(3,5-difluorophenyl)-4-((3-(trifluoromethyl)phenyl)-sulfonyl)-3,4-dihydro-2H-benzo[b][1,4]oxazin-2-yl)-2-methylpropanoic acid] | > 6.30 | *** (The symbol “***” indicates a value in the range of greater than 150 to 200)
C[C@H](C[C@H]1CN(S(=O)(=O)c2cccc(C(F)(F)F)c2)c2cc(-c3cccc(C(F)(F)F)c3)ccc2O1)C(=O)O [Compound 46K, (R)-2-methyl-3-((S)-6-(3-(trifluoromethyl)phenyl)-4-((3-(trifluoromethyl)phenyl)sulfonyl)-3,4-dihydro-2H-benzo[b][1,4]-oxazin-2-yl)propanoic acid] | > 6.30 | *** (The symbol “***” indicates a value in the range of greater than 150 to 200)
C[C@@H](C[C@H]1CN(S(=O)(=O)c2cccc(C(F)(F)F)c2)c2cc(-c3cccc(C(F)(F)F)c3)ccc2O1)C(=O)O [Compound 46L, (S)-2-methyl-3-((S)-6-(3-(trifluoromethyl)phenyl)-4-((3-(trifluoromethyl)phenyl)sulfonyl)-3,4-dihydro-2H-benzo[b][1,4]-oxazin-2-yl)propanoic acid] | > 6.30 | 
C[C@H](C[C@H]1CN(S(=O)(=O)c2cccc(C(F)(F)F)c2)c2cc(-c3cc(F)cc(F)c3Cl)ccc2O1)C(=O)O [Compound 46M, (R)-3-((S)-6-(2-chloro-3,5-difluorophenyl)-4-((3-(trifluoromethyl)phenyl)sulfonyl)-3,4-dihydro-2H-benzo[b][1,4]oxazin-2-yl)-2-methylpropanoic acid] | > 6.30 | *** (The symbol “***” indicates a value in the range of greater than 150 to 200)
C[C@H](C[C@H]1CN(S(=O)(=O)c2cccc(C(F)(F)F)c2)c2cc(-c3cc(F)cc(OC(F)F)c3)ccc2O1)C(=O)O [Compound 46O, (R)-3-((S)-6-(3-(difluoro-methoxy)-5-fluorophenyl)-4-((3-(trifluoromethyl)phenyl)sulfonyl)-3,4-dihydro-2H-benzo[b][1,4]-oxazin-2-yl)-2-methylpropanoic acid] | > 6.30 | *** (The symbol “***” indicates a value in the range of greater than 150 to 200)
C[C@@H](C[C@H]1CN(S(=O)(=O)c2cccc(C(F)(F)F)c2)c2cc(-c3cc(F)cc(OC(F)F)c3)ccc2O1)C(=O)O [Compound 46P, (S)-3-((S)-6-(3-(difluoro-methoxy)-5-fluorophenyl)-4-((3-(trifluoromethyl)phenyl)sulfonyl)-3,4-dihydro-2H-benzo[b][1,4]-oxazin-2-yl)-2-methylpropanoic acid] | > 6.30 | *** (The symbol “***” indicates a value in the range of greater than 150 to 200)
C[C@H](C[C@H]1CN(S(=O)(=O)c2cccc(C(F)(F)F)c2)c2cc(-c3cc(Cl)cc(OC(F)F)c3)ccc2O1)C(=O)O [Compound 46Q, (R)-3-((S)-6-(3-chloro-5-(difluoromethoxy)phenyl)-4-((3-(trifluoromethyl)phenyl)sulfonyl)-3,4-dihydro-2H-benzo[b][1,4]-oxazin-2-yl)-2-methylpropanoic acid] | > 6.30 | *** (The symbol “***” indicates a value in the range of greater than 150 to 200)
